“And” between values parts separate entries of the source, which are not always exact repeats. Equal values may be shown once.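 Assay format: 96-well plates, 48-hour exposure. GI50 = concentration required for 50% inhibition of growth. TGI denotes the concentration required for complete inhibition of growth.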 Where only a bound is given, the exact number is not on record here.

The test system of test [1] is P388 leukemia. The experiment in a line: NCI tumour cell line growth inhibition, 48 h.
Test [2] deals with P388/ADR leukemia. In words: NCI tumour cell line growth inhibition, 48 h.

As for `CC(C)[C@](O)(C(=O)OCC1=CC[N+]2([O-])CC[C@@H](O)[C@@H]12)[C@H](C)O` (some centres undefined), the TGI in test [1] and in test [2] was more than 10000 µM throughout.
For `S=c1nc[nH]c2nc[nH]c12`, the TGI in test [1] amounted to 242 µM; in test [2] it was 548 µM.
Take `COC1=C(C)C(=O)C2=C(C1=O)C(CO)N1C(C#N)C3CC4C(C1C2N1CCOC41)N3C` (centres undefined): in test [2], the TGI is more than 100 µM.
In the case of `COc1ccc2[nH]c3c(C)c4cc[n+](C)cc4c(C)c3c2c1`, in test [1], the GI50 is 1780 nM; the TGI is 19.1 µM and 10.8 µM and 16.5 µM. Further, in test [2], the GI50 was 20.8 µM; the TGI was > 56.2 µM and > 75 µM and 125 µM.

For the origin of these results see PubChem BioAssay (NCI).
